In patent publication US7652013B2, “Inhibitors of stearoyl-CoA desaturase” (Hoffman-La Roche Inc., priority 2007, dated 2010):
pIC50: −log10 of the molar value.

Assays:
SCD1 = biological target: T1, SCD1 (Mus musculus, UniProt P13516); assay: SCD assay: release of tritiated water from desaturation of 9,10-3H-stearoyl CoA, mouse liver microsomes; type: biochemical
T1 construct: Mouse liver microsomes, prepared from mice fed a high carbohydrate diet, were a source of the SCD; from tissue; host or cells: mouse liver microsomes (mice fed a high carbohydrate diet)
T1 sequence (P13516 1-355): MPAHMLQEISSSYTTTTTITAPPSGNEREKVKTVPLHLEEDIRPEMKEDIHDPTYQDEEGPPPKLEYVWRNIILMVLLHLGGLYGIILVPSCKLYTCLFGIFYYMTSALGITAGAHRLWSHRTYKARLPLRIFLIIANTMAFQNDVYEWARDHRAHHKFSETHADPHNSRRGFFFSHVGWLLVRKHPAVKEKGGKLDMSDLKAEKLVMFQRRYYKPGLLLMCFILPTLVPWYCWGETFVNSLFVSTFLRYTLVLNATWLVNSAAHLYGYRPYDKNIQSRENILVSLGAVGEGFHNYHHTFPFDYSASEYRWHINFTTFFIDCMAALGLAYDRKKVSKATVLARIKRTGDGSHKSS
Excerpt: Stearoyl CoA desaturase activity was monitored by a modification of the acyl carrier protein assay described by B. R. Talamo and K. Bloch in Anal. Biochem. 1968, 29, 300-304. The SCD assay monitors the release of tritiated water from the desaturation of 9,10-^3H-stearoyl CoA.
Mouse liver microsomes, prepared from mice fed a high carbohydrate diet, were a source of the SCD and cyt b5 and cyt b5 reductase, necessary accessory proteins for the coupled reaction. Reaction mixtures for compound titrations contained 50 mM Tris HCl pH 7.5, 100 mM NaCl, 0.165 mg/ml BSA, 2.4% DMSO, 1 mM NADH, 0.03% T-20, and 300 nM (9,10) ^3H-stearoyl CoA (Perkin-Elmer). Reactions were initiated upon the addition of 4 ug/ml SCD microsomes. Incubations were terminated after 25 minutes at room temperature with cold 6% TCA. After standing 10 minutes at 4 deg C., samples were centrifuged 15 minutes at 4000 rpm to pellet precipitated protein. Supernatants were added to microtiter plates containing suspensions of activated charcoal (Darco G-60, Fisher Scientific) and mixed by inversion. Plates were then centrifuged to separate ^3H—H2O product from charcoal-bound reactants. Supernatants were quantitated in a Perkin Elmer Topcount 384 after solubilization in ScintiSafe Plus 50% (Fisher Scientific).
Inhibition (%) of SCD activity by compounds was calculated according to the following formula: % Inhibition=100*[1−(CPMsample−CPMblank)/(CPMtotal−CPMblank)]

SMILES	pIC50 (SCD1)	melting point
O=c1cc(N2CCN(Cc3ccc(F)cc3Cl)CC2)nc[nH]1 [Example 32, 6-[4-(2-Chloro-4-fluoro-benzyl)-piperazin-1-yl]-3H -pyrimidin-4-one]	≤ 5.96	255 to 256 °C (dec.)
O=c1cc(N2CCN(Cc3cccc(F)c3)CC2)nc[nH]1 [Example 33, 6-[4-(3-Fluoro-benzyl)-piperazin-1-yl]-3H-pyrimidin-4-one]	≤ 5.96	273 to 275 °C (dec.)
O=c1cc(N2CCN(Cc3ccc(Br)cc3F)CC2)nc[nH]1 [Example 34, 6-[4-(4-Bromo-2-fluoro-benzyl)-piperazin-1-yl]-3H -pyrimidin-4-one]	≤ 5.96	275 to 276 °C
O=c1cc(N2CCN(Cc3cccc(Cl)c3O)CC2)nc[nH]1 [Example 45, 6-[4-(3-Chloro-2-hydroxy-benzyl)-piperazin-1-yl]-3H -pyrimidin-4-one]	≥ 6.00	
O=c1cc(N2CCN(Cc3cc(Cl)ccc3O)CC2)nc[nH]1 [Example 46, 6-[4-(5-Chloro-2-hydroxy-benzyl)-piperazin-1-yl]-3H -pyrimidin-4-one]	≥ 6.00	
Cc1cc(Cl)cc(CN2CCN(c3cc(=O)[nH]cn3)CC2)c1O [Example 47, 6-[4-(5-Chloro-2-hydroxy-3-methyl-benzyl)-piperazin-1-yl]-3H-pyrimidin-4-one]	≥ 6.00	
O=c1cc(N2CCN(Cc3cccc(Br)c3O)CC2)nc[nH]1 [Example 48, 6-[4-(3-Bromo-2-hydroxy-benzyl)-piperazin-1-yl]-3H -pyrimidin-4-one]	≥ 6.00	
O=c1cc(N2CCN(Cc3cc(Br)cc(Br)c3O)CC2)nc[nH]1 [Example 49, 6-[4-(3,5-Dibromo-2-hydroxy-benzyl)-piperazin-1-yl]-3H-pyrimidin-4-one]	≥ 6.00	
O=c1cc(N2CCN(Cc3cc(Cl)cc(Br)c3O)CC2)nc[nH]1 [Example 50, 6-[4-(3-Bromo-5-chloro-2-hydroxy-benzyl)-piperazin-1-yl]-3H-pyrimidin-4-one]	≥ 6.00	
O=c1cc(N2CCN(Cc3cc(I)ccc3O)CC2)nc[nH]1 [Example 51, 6-[4-(2-Hydroxy-5-iodo-benzyl)-piperazin-1-yl]-3H -pyrimidin-4-one]	≥ 6.00	
C=CCc1cc(CN2CCN(c3cc(=O)[nH]cn3)CC2)c(O)c(OC)c1 [Example 52, 6-[4-(5-Allyl-2-hydroxy-3-methoxy-benzyl)-piperazin-1-yl]-3H -pyrimidin-4-one]	≤ 5.96	
COc1cc(Cl)cc(CN2CCN(c3cc(=O)[nH]cn3)CC2)c1O [Example 53, 6-[4-(5-Chloro-2-hydroxy-3-methoxy-benzyl)-piperazin-1-yl]-3H -pyrimidin-4-one]	≥ 6.00	
COc1cc(I)cc(CN2CCN(c3cc(=O)[nH]cn3)CC2)c1O [Example 54, 6-[4-(2-Hydroxy-5-iodo-3-methoxy-benzyl)-piperazin-1-yl]-3H -pyrimidin-4-one]	≥ 6.00	
COc1cc([N+](=O)[O-])cc(CN2CCN(c3cc(=O)[nH]cn3)CC2)c1O [Example 55, 6-[4-(2-Hydroxy-3-methoxy-5-nitro-benzyl)-piperazin-1-yl]-3H-pyrimidin-4-one]	≤ 5.96	
